Source: US12390451B2, “Small molecule inhibitor of the JAK family of kinases” (Janssen Pharmaceutica NV, priority 2021, dated 2025)

Columns and labels:
[1] = Tissue distribution in rats after oral administration; assay type: in vivo, male Sprague-Dawley rats; settings: male, Sprague-Dawley, rat, PO 25 mg/kg
Procedure: Preliminary tissue distribution studies were conducted in male Sprague-Dawley rats (N=3/time point) at 0.5, 1, 2, 3, 5, 7, and 24 hours following oral administration of compound of Formula I at a dose of 25 mg/kg. The following tissues were harvested for compound concentration analysis: liver, kidney, brain, muscle, epididymis fat, duodenum, jejunum, ileum, colon (both lumen content and tissue), and plasma. The results of this study indicated low systemic exposure and high local concentrations (intestinal tract).

JAK1/Tyk2 = target: T1, JAK1/Tyk2 (Mus musculus, UniProt P52332+Q9R117); assay: IFNα-induced pSTAT-3 in murine whole blood; assay type: cell-based
T1 construct: endogenous in cells; host or cells: murine whole blood
Procedure: (§1) Mouse whole blood IC50 values were also generated to build an understanding of the relationship between systemic exposures and target engagement in murine models. In murine whole blood, the in vitro activity of compound of Formula I in the inhibition of IFNα-(JAK1/Tyk2), IL-21-(JAK1/3), and IL-12-(JAK2/Tyk2) induced pSTAT responses in murine whole blood was measured. […] No reliable IC50 could be reported for inhibition of IL-12 induced pSTAT-4 in murine whole blood.

JAK1/3 = target: T2, JAK1/3 (Mus musculus, UniProt P52332+Q62137); assay: IL-21-induced pSTAT-3 in murine whole blood; assay type: cell-based
T2 construct: endogenous in cells; host or cells: murine whole blood
Procedure: as §1

[2] = Tissue distribution in mice after oral administration; assay type: in vivo, female C57Bl/6 mice; settings: oral 10 mg/kg; for concentration at 0.5 h / concentration at 1 h / concentration at 2 h / concentration at 3 h / concentration at 5 h / concentration at 7 h / concentration at 24 h: female, C57Bl/6, mouse
Procedure: Limited tissue (liver, intestine) distribution studies were conducted in female C57Bl/6 mice ([…]) at 0.5, 1, 2, 3, 5, 7, and 24 hours following oral administration of compound of Formula 1 at a dose of 10 mg/kg formulated as a solution in 20% HP-β-CD. The plasma and the following tissues were harvested for compound concentration analysis: liver, whole ileum, and whole colon. The ileum and colon were flushed with saline prior to homogenization. Feces were collected over a period of 24 hours. All tissues (except plasma) were homogenized in sterile water and compound of Formula I concentrations were determined using LC-MS/MS. […] The concentration of compound of Formula I in feces was 125.6 μg at 24 hours post dose.

[3] = jejunum lumen content, average, N = 3, read-out: Jejunum Content concentration
[4] = jejunum tissue, average, N = 3, read-out: Jejunum Tissue concentration
[5] = kidney, average ±SD, read-out: Kidney concentration
[6] = liver, average ±SD, read-out: Liver concentration
[7] = plasma, average ±SD, read-out: Plasma concentration
[8] = colon, mean ± SD, read-out: Colon concentration
[9] = ileum, mean ± SD, read-out: Ileum concentration
[10] = liver, mean ± SD, read-out: Liver concentration
[11] = plasma, mean ± SD, read-out: Plasma concentration

T2 sequence (P52332 whole entry): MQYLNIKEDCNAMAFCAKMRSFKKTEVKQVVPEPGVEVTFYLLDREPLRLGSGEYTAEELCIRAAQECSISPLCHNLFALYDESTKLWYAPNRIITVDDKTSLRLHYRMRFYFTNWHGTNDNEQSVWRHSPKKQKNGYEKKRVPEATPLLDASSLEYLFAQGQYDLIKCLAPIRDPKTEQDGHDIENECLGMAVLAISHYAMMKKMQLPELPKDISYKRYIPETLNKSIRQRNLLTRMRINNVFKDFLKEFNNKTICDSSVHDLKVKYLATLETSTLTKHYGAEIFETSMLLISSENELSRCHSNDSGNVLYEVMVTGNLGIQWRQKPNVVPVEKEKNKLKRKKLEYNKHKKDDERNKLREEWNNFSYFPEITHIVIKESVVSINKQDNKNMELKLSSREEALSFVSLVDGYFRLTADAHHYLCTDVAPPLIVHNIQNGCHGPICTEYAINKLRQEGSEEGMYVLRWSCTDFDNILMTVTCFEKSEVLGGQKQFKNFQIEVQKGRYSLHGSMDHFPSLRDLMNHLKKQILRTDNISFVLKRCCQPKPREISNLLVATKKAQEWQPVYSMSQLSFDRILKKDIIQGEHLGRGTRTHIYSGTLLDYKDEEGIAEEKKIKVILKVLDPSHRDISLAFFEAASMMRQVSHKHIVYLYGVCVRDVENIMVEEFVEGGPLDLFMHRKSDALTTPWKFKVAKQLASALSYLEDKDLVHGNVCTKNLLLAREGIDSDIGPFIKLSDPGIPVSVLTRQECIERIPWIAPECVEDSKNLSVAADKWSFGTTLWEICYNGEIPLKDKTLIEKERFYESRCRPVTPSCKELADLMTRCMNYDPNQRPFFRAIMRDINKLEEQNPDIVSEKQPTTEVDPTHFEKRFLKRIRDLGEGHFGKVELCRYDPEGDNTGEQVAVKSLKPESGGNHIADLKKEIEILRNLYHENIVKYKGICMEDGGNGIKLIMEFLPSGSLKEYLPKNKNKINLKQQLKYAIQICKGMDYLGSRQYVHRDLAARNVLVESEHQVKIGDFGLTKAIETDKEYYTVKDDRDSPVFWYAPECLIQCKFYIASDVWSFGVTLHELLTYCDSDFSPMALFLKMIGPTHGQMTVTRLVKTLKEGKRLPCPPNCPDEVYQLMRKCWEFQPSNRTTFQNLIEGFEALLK
T2 sequence (Q62137 whole entry): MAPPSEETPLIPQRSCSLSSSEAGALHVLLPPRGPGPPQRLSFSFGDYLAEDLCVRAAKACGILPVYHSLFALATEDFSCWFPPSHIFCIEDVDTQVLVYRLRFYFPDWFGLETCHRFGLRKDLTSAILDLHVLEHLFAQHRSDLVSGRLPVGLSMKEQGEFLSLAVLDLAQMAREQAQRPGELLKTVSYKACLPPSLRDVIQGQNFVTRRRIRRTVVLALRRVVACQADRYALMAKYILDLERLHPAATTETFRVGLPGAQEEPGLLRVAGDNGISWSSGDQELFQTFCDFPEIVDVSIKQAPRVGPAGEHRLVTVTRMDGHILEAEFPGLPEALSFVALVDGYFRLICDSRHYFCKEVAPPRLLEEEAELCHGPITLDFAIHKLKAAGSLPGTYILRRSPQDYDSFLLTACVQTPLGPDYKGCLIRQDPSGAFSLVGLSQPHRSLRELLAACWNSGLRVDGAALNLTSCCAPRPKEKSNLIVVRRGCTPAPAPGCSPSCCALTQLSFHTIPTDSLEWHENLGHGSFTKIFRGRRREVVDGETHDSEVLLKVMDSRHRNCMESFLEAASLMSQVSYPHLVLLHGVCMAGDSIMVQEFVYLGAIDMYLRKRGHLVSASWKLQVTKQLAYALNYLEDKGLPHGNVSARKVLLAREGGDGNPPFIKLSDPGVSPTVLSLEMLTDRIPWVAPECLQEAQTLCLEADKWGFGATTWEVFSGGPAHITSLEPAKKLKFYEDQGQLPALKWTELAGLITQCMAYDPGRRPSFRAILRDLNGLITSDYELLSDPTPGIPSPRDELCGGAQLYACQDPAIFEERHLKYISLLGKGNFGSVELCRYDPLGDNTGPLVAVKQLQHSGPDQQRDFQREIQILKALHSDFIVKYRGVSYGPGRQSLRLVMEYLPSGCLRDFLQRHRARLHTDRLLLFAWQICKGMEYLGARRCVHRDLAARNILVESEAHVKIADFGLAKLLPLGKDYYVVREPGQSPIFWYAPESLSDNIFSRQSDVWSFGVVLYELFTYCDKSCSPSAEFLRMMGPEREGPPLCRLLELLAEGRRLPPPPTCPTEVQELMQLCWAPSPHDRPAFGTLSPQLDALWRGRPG
T2 sequence (Q9JHX3 20-529 partner): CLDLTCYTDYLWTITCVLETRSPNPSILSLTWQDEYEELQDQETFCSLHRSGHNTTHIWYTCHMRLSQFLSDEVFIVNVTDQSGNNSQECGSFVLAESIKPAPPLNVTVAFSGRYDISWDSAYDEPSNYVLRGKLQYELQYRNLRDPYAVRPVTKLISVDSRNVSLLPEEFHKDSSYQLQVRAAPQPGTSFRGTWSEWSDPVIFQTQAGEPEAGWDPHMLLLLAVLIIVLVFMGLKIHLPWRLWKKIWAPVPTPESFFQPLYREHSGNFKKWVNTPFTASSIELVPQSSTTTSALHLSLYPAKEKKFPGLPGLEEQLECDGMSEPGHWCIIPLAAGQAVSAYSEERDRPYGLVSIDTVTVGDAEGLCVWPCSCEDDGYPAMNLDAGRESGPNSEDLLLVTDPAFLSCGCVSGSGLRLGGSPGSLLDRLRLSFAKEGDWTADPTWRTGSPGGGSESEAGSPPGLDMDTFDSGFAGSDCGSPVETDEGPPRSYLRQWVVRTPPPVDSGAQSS
T2 sequence (P34902 23-369 partner): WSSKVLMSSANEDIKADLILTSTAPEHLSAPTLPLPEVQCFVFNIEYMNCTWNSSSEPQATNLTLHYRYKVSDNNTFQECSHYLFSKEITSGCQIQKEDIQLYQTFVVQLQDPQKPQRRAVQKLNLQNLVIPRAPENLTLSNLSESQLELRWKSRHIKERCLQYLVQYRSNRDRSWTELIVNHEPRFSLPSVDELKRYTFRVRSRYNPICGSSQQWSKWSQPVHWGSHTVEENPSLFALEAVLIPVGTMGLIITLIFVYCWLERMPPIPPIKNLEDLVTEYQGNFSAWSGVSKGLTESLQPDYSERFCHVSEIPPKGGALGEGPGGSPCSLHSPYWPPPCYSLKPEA

CC(C)(O)CNC(=O)Cc1nc2cnc3[nH]ccc3c2n1[C@H]1CC[C@H](CC#N)CC1 [Compound of Formula I, 2-(1-((1r,4r)-4-(Cyanomethyl)cyclohexyl)-1,6-dihydroimidazo[4,5-d]pyrrolo[2,3-b]pyridin-2-yl)-N-(2-hydroxy-2-methylpropyl)acetamide]
concentration at 1 h [1, 3]: 249000 ng/mL | concentration at 2 h [1, 3]: 90700 ng/mL | concentration at 3 h [1, 3]: 48000 ng/mL | concentration at 5 h [1, 3]: 26300 ng/mL | concentration at 7 h [1, 3]: 10300 ng/mL | concentration at 24 h [1, 3]: 228 ng/mL | concentration at 0.5 h [1, 4]: 47200 ng/g | concentration at 1 h [1, 4]: 23500 ng/g | concentration at 2 h [1, 4]: 8230 ng/g | concentration at 3 h [1, 4]: 3980 ng/g | concentration at 5 h [1, 4]: 1810 ng/g | concentration at 7 h [1, 4]: 788 ng/g | concentration at 24 h [1, 4]: 27 ng/g | concentration at 0.5 h [1, 5]: 57.9 ± 26.2 ng/g | concentration at 2 h [1, 5]: 24.3 ± 6.6 ng/g | concentration at 3 h [1, 5]: 30 ± 9.4 ng/g | concentration at 5 h [1, 5]: 12.9 ± 3.6 ng/g | concentration at 7 h [1, 5]: 19.9 ± 7.8 ng/g | concentration at 0.5 h [1, 6]: 158 ± 104 ng/g | concentration at 1 h ([1]; liver, SD NA, read-out: Liver concentration): 70.4 ng/g | concentration at 2 h [1, 6]: 49.9 ± 17.5 ng/g | concentration at 3 h [1, 6]: 29.6 ± 14.5 ng/g | concentration at 5 h [1, 6]: 18.7 ± 3 ng/g | concentration at 7 h [1, 6]: 20.7 ± 3 ng/g | concentration at 0.5 h ([1]; muscle, average ±SD, read-out: Muscle concentration): 16.7 ± 15 ng/g | concentration at 0.5 h [1, 7]: 6.3 ± 1.1 ng/mL | concentration at 2 h [1, 7]: 3.7 ± 0.9 ng/mL | concentration at 3 h [1, 7]: 3.1 ± 1.1 ng/mL | concentration at 5 h [1, 7]: 1.5 ± 0.7 ng/mL | concentration at 7 h [1, 7]: 2.1 ± 0.5 ng/mL | IC50 (JAK1/Tyk2): 299 nM | IC50 (JAK1/3): 415 nM | concentration at 0.5 h ([2]; colon, N = 2, read-out: Colon concentration): 94.2 ng/g | concentration at 1 h [2, 8]: 5110 ng/g | concentration at 2 h [2, 8]: 6620 ng/g | concentration at 3 h [2, 8]: 7760 ng/g | concentration at 5 h [2, 8]: 8450 ng/g | concentration at 7 h [2, 8]: 3790 ng/g | concentration at 24 h ([2]; colon, 24 h, mean ± SD, read-out: Colon concentration): 195 ± 120 ng/g | concentration at 0.5 h [2, 9]: 73.8 ± 11.6 ng/g | concentration at 1 h [2, 9]: 22700 ng/g | concentration at 2 h [2, 9]: 12000 ng/g | concentration at 3 h [2, 9]: 16400 ng/g | concentration at 5 h [2, 9]: 3440 ng/g | concentration at 7 h [2, 9]: 2250 ng/g | concentration at 24 h ([2]; ileum, 24 h, mean ± SD, read-out: Ileum concentration): 87.6 ± 17.8 ng/g | concentration at 0.5 h [2, 10]: 34.8 ± 16.5 ng/g | concentration at 1 h [2, 10]: 189 ± 304 ng/g | concentration at 2 h [2, 10]: 84.5 ± 114 ng/g | concentration at 3 h [2, 10]: 23.3 ± 0.8 ng/g | concentration at 5 h [2, 10]: 16.8 ± 8.8 ng/g | concentration at 7 h ([2]; liver, N = 2, read-out: Liver concentration): 24 ng/g | concentration at 0.5 h [2, 11]: 3.5 ± 1.8 ng/mL | concentration at 1 h [2, 11]: 2.6 ± 0.9 ng/mL | concentration at 2 h [2, 11]: 2.3 ± 0.2 ng/mL | concentration at 3 h [2, 11]: 3.2 ± 1.7 ng/mL | concentration at 5 h [2, 11]: 2.1 ± 0.9 ng/mL | concentration at 7 h [2, 11]: 6 ± 4.9 ng/mL | Liver concentration ([2]; 24 h, BLOQ (1 ng/mL)): BLOQ^b | Plasma concentration ([2]; 24 h, BLOQ (1 ng/mL)): BLOQ^b | concentration in feces ([2]; 24 hours post dose): 125.6 µg
